Earlier results as cited in US10720228B2, “Method and system for testing of active molecules using molecular simulation of skin membrane” (Tata Consultancy Services Limited, priority 2016, dated 2020).

Conditions: 323 K

For O [water], the “experimentally observed free energy of water solvation in hexadecane” value is listed as 5.98 kcal/mol.
